The subject of one series is platelet cyclooxygenase. The series is described as follows: Thromboxane B2 synthesis by arachidonic acid-stimulated platelet-rich plasma in vitro. The class given is cell-based, male Sprague-Dawley rats. Particulars: ASA/SA 1:1 w/w, TX B2. The text has this:
Was done manually by the method of Brecher and Conkite (1953) using phase contrast microscopy (Balplan) with a 40×annulus, 40×phase objective, and 10×ocular (total of 400×), and a special platelet counting chamber (American Optical Corp., Buffalo, N.Y.) and dilution with 1% ammonium oxalate. The platelet-rich plasma (PRP) was adjusted by dilution with platelet-poor plasma (PPP) to give a final count of 1×10^9 platelets/ml.
Arachidonic acid (as the sodium salt, >99.0% pure) was obtained from Sigma Chemical Co. and a stock solution of 34.5 mM was prepared by dissolving in isotonic saline. 20 μl of the stock solution were added to 440 μl of PRP (400 μl of PRP and 20 or 40 μl of treatment solution ±20 μl of saline) to make a 23 fold dilution. The final concentration of AA in PRP was 1.5 mM.
EDTA solution was prepared by adding 2 gm disodium EDTA and 0.8 gm NaCl and were adjusted to pH 7.4 with NaOH and made up to a final volume of 100 ml in distilled water. ASA solution was prepared by dissolving 30 mg in 10 ml of isotonic saline to make a solution of 3 mg/ml.
950 μl of EDTA solution were added to 50 μl of ASA solution and the mixture was vortexed. 40 μl of the mixture were pipetted in the experiment test tubes to stop further prostaglandin production.
Platelet-rich plasma (PRP) was prepared from male Sprague-Dawley rats (300-325 gm). The blood was collected by heart puncture and added to 3.8% citrate solution, final volume 9:1, blood:citrate. The blood was centrifuged at 120×g (750 rpm) for 15 minutes at 4° C. to obtain PRP. The rest of the blood was spun at 1800×g (3000 rpm) for 10 minutes to get the PPP which was used later for dilution of the PRP to achieve the final desired platelet concentration of 1×10^9 platelets/ml. 400 μl of PRP, containing 4×10^8 platelets, were pipetted in polypropylene tubes and the following treatment groups were studied:
1--Baseline (-ve control) tubes: to measure the baseline production of Thromboxane B2 (TX B2) by platelets during the time of the experiment, 60 μl of saline were added and left for 10 minutes in a shaking water bath at 37° C.
2--Control (+ve control) tubes: 20 μl of arachidonic acid (AA) solution were added to achieve a final concentration of 1.5 mM and the tubes were incubated […].
3--ASA and/or SAM treatment tubes: 20 μl of ASA (final conc. 130 μg/ml), 20 μl of SAM solution (final conc. 40 μg/ml), 20 μl of ASA/SAM(L) solution (final conc. 130/40 μg/ml) or 20 μl of ASA/SAM(H) solution (final conc. 130/120 μg/ml) were added to PRP together with 20 μl of saline for 10 minutes, then 20 μl of AA solution were added for additional 10 minutes.
4--ASA/SA treatment: 20 μl of ASA/SA solution (final conc. 130/130 μg/ml) and 20 μl of saline were added to the tubes for 10 minutes before AA was added for further 10 minutes.
5--ASA/SA/SAM treatment: 20 μl of ASA/SA solution (130/130 μg/ml as final conc.) and 20 μl of […] in low (L) or high (H) concentrations (40 or 120 μg/ml, final conc.) were added simultaneously to PRP followed 10 minutes later by AA.
6--SAM/SA treatment: 20 μl of SAM solution (final conc. 40 μg/ml) and 20 μl of SA solution (final conc. 130 μg/ml) were added followed 10 minutes later by AA for additional 10 minutes.
Also, the effect of SAM when administered first to the platelets followed 10 minutes later by ASA was studied to know whether the effect of SAM is time dependent or not.
During the treatment, all the tubes were incubated at 37° C. in a shaking water bath. Ten minutes after the addition of AA, or saline (for the control tubes), the experiment was ended by addition of 40 μl of EDTA/ASA solution. The tubes were immediately centrifuged at 1800×g for 15 minutes at 4° C. to precipitate the platelets and 100 μl of the supernatant were obtained for estimation of their content of TX B2 using a specific radioimmunoassay (Amersham International) (vide infra).
Radioimmunoassay Procedure for Measurement of Thromboxane B2 and 6-keto PG F1alpha […]

For series [1] the following is noted: cited from earlier work.
For series [2], the system named is lyso-PAF:acetyl-CoA acetyltransferase. Conditions: cited from earlier work.
A further series relates to cyclooxygenase. Conditions: in vitro; cited from earlier work.

As for `O=C(O)c1ccccc1O` [SA, salicylic acid], the “Antagonism of ASA effect by SA” value in the series with platelet cyclooxygenase was ~ 70%. Also, the Pharmacokinetics linearity result in series [1] (humans and rats) was “non-linear and dose-dependent”. Further, the “Distribution and plasma albumin binding” value in series [1] (rat, in vivo) was “concentration-dependent distribution and plasma albumin binding”. For the same compound, the “Effect on lyso-PAF:acetyl-CoA acetyltransferase” value in series [2] is “inhibitory effect”. For the same compound, in the series on cyclooxygenase, the Effect on cyclooxygenase result was “does not have the capacity to inhibit cyclooxygenase”.

(Values after patent publication US5389621A, “Method of enhancing the anticoagulant effects of aspirin using salicylamide” (University of Medicine and Dentistry of New Jersey, priority 1994, dated 1995).)
